Data reported in article PMC5503536, “Development of [^11C]vemurafenib employing a carbon-11 carbonylative Stille coupling and preliminary evaluation in mice bearing melanoma tumor xenografts” (Oncotarget, 2017).
Blank lines part the entries; values can stand above or below the compound they belong to.

Tests used:
[1] = test system: Colo829 xenograft tumor sections; assay: Autoradiography on Colo829 xenograft sections; format: binding; conditions: co-incubation with unmodified vemurafenib 100 μM, tracer only = 100%
Protocol: (§1) To determine the binding potential of [^11C]vemurafenib to tumor tissue expressing BRAF^wt or BRAF^V600E, autoradiography studies on xenograft sections and in vitro cellular uptake studies were performed. Sections of tumor xenografts derived from the aforementioned cell lines were incubated with [^11C]vemurafenib.
(§2) Colo829 and MeWo xenograft sections (10 μm thickness) were pre-treated three times with 5 mM Tris-HCl buffer (pH 7.4) for 5 min.. Sections were dried under a gentle air flow before incubation for 30 min. with [^11C]vemurafenib and the following conditions: (A) 5 mM Tris-HCl, pH 7.4; (B) 5 mM Tris-HCl, pH 7.4 and isotopically unmodified vemurafenib at 100 μM (n = 4 for each incubation condition). Washing was performed using Tris-HCl (3×) followed by dipping in ice cold water. After drying in an air stream, tumor sections were exposed to a phosphor-imaging screen for 15 min. Data was quantified as average signal intensity per surface area and were represented relative to the tracer only (A) conditions, which was set at 100%. Error bars indicate standard deviations. Quantification of binding was performed using ImageQuantTL v8.1.0.0 (GE Healthcare, Buckinghamshire, UK) by drawing regions of interest around the full tumor sections.

[2] = test system: MeWo xenograft tumor sections; assay: Autoradiography on MeWo xenograft sections; format: binding; conditions: co-incubation with unmodified vemurafenib 100 μM, tracer only = 100%
Protocol: as §1, §2

Colo829 cells = assay: In vitro cell uptake, Colo829; format: cell-based
Protocol: (§3) To determine binding of [^11C]vemurafenib in vitro to intact tumor cells a cell uptake study was performed by incubation of tumor cells in suspension with [^11C]vemurafenib, followed by removal of the supernatant and washing of the cells with PBS (phosphate buffered saline). […] While in vitro experiments can be of great value to predict tracer target binding, the experiments exclude many of the factors observed in vivo, for PET-tracer validation. Therefore in vivo experiments are of the utmost importance for PET-tracer validation. […]
(§4) Colo829 or MeWo cells (1*10^6) suspended in growth medium were incubated in triplicate in centrifuge tubes at 37°C with 1 MBq of [^11C]vemurafenib (corresponding to 0.02 nmol of vemurafenib) for 30 min. […] All fractions (cells, supernatant and PBS) were counted for radioactivity using a gamma counter (Wallac 1210 Compugamma, PerkinElmer, Waltham, MA, USA) and the cell bound/internalized percentage of [^11C]vemurafenib was determined as the fraction of activity in the cell pellet divided by the total activity (cells, supernatant and PBS) corrected for background (medium only) and vehicle treated conditions.

MeWo cells = assay: In vitro cell uptake, MeWo; format: cell-based
Protocol: as §3, §4

[3] = Plasma metabolite analysis (in vivo stability); parameters: species or system athymic nu/nu mice; conditions: for Parent (%): plasma, i.v., non-tumor bearing mice
Protocol: The cartridge was washed with 5 mL of H2O to collect polar radioactive metabolites.

[4] = test system: Colo829 (BRAF^V600E) xenografts; assay: Ex vivo biodistribution, Colo829 xenograft bearing mice; format: in vivo, athymic nu/nu mice; conditions: 60 min p.i.
Protocol: (§5) To evaluate the in vivo tumor targeting potential an ex vivo biodistribution study was performed in mice bearing the aforementioned melanoma xenografts. Tumor bearing mice were injected with 20–25 MBq of [^11C]vemurafenib (corresponding to 0.36–0.45 nmol of vemurafenib) and sacrificed 60 minutes post injection. Subsequently organs of interest were excised and counted for activity.
(§6) Nude mice (Athymic nu/nu, Harlan, Horst, The Netherlands) bearing two tumors (obtained by injection of MeWo or Colo829 cells, 2*10^6 per site) of the same xenograft line on their left and right flank, received an injection of 25 MBq [^11C]vemurafenib (corresponding to 0.45 nmol of vemurafenib) via the ocular plexus. The mice were sacrificed and dissected at 60 min. post-injection. Blood, urine, skin, left tumor, right tumor, muscle, heart, colon, lung, liver, kidney and brain were collected, weighed and counted for radioactivity in a gamma counter (Wallac 1210 Compugamma, PerkinElmer, Waltham, MA, USA). Biodistribution data are expressed as percentage of injected dose per gram (%ID/g) of tissue for each organ.

[5] = test system: MeWo (BRAF^wt) xenografts; assay: Ex vivo biodistribution, MeWo xenograft bearing mice; format: in vivo, athymic nu/nu mice; conditions: 60 min p.i.
Protocol: as §5, §6

[6] = Ex vivo biodistribution, statements made for both xenograft lines; format: in vivo, athymic nu/nu mice
Protocol: as §5, §6

[7] = test system: Colo829 (BRAF^V600E) cells; assay: Cell titer blue cell viability assay, Colo829; format: cell-based; conditions: Homo sapiens, COLO-829
Protocol: (§7) Having a reliable synthesis route to obtain [^11C]vemurafenib, cell lines had to be selected to evaluate the tumor targeting potential of [^11C]vemurafenib. Two melanoma cell lines were selected based on reported mutational status of BRAF: Colo829 (BRAF^V600E) and MeWo (BRAF^wt). Both cell lines were analyzed by Fluorescence Activated Cell Sorting (FACS) using a BRAF antibody (recognizing both wild-type and BRAF^V600E) and a BRAF^V600E selective antibody for assessment of target expression (Figure 2A/2B). […] Furthermore, both the cells as well as the xenografts derived from the cell lines were sequenced to confirm the expression of BRAF and the mutational status thereof. […] (V600E) and MeWo cells and xenografts were wild-type. […] So while the BRAF^V600E kinase is sensitive to vemurafenib treatment, it appears that a certain level of mutated protein expression is required for this sensitivity, as both cell lines expressed the mutation to an extent, as determined by FACS. In contrast sequencing only detected the V600E mutation in the Colo829, indicative of higher expression. […]
(§8) Vemurafenib stock solutions of 1 mM in DMSO were prepared and diluted with PBS to a concentration of 10 μM (1% DMSO). […] Finally the fluorescence was measured using a TriStar^2 LB942 plate reader (Berthold Technologies, Bad Wildbad, Germany). […]

MeWo (BRAF^wt) cells = assay: Cell titer blue cell viability assay, MeWo; format: cell-based; conditions: 120 h incubation, CellTiter-Blue
Protocol: as §7, §8

[8] = parameters: method as in PMID 23060265; conditions: phase I trial with 32 patients; cited from earlier work
[9] = parameters: method as in PMID 23060265; conditions: phase III, vs patients treated with dacarbazine; cited from earlier work
BRAF^V600E cells = test system: BRAF^V600E cells; parameters: method as in PMID 20149136; conditions: cited from earlier work
BRAF^wt cells = test system: BRAF^wt cells; parameters: method as in PMID 20149136; conditions: cited from earlier work
P-gp = conditions: cited from earlier work
BCRP = conditions: cited from earlier work

intact tracer in plasma (stability) ([3]; 45 minutes after injection): > 95%
Parent (%) ([3]; 15 min p.i.): 97.8 ± 1.9%
Parent (%) ([3]; 45 min p.i.): 95.9 ± 4.4%
Tumor-to-blood ratio ([4]; Colo829 (BRAF^V600E)): 0.27 ± 0.06
Tumor-to-muscle ratio ([4]; Colo829 (BRAF^V600E)): 0.78 ± 0.18
Tumor-to-skin ratio ([4]; Colo829 (BRAF^V600E)): 0.90 ± 0.19
Tumor uptake ([4]; Colo829 tumors, 20–25 MBq): 0.87 ± 0.14 ID/g
Tumor-to-blood ratio ([5]; MeWo (BRAF^WT)): 0.29 ± 0.19
Tumor-to-muscle ratio ([5]; MeWo (BRAF^WT)): 0.72 ± 0.21
Tumor-to-skin ratio ([5]; MeWo (BRAF^WT)): 0.89 ± 0.28
Tumor uptake ([5]; MeWo tumors, 20–25 MBq): 0.49 ± 0.29 %ID/g
blood levels ([6]; after 60 minutes, xenograft bearing mice): 2–3 %ID/g
tumor-to-tissue ratios (muscle, blood, skin), all cases ([6]; both xenograft lines, 60 min p.i.): ≤ 1
Compound: CCCS(=O)(=O)Nc1ccc(F)c([11C](=O)c2c[nH]c3ncc(-c4ccc(Cl)cc4)cc23)c1F [[^11C]vemurafenib]
binding when compared to unblocked conditions [1]: 51.2 ± 11.2%
binding when compared to unblocked conditions [2]: 65.1 ± 3.1%
cell bound + internalized fraction (Colo829 cells; 30 min, 37°C, unblocked): 74.3 ± 1.5%
cell bound + internalized fraction after pretreatment with unmodified vemurafenib (Colo829 cells; blocked): 17.0 ± 2.3%
cell bound + internalized fraction (MeWo cells; 30 min, 37°C, unblocked): 61.6 ± 8.2%
cell bound + internalized fraction after pretreatment with unmodified vemurafenib (MeWo cells; blocked): 20.6 ± 0.4%

Compound: CCCS(=O)(=O)Nc1ccc(F)c(C(=O)c2c[nH]c3ncc(-c4ccc(Cl)cc4)cc23)c1F [vemurafenib, Vemurafenib]
IC50 ([7]; Colo829 (BRAF^V600E), 120 h incubation, CellTiter-Blue): 130 nM
EC50 ([7]; printed in the picture beside the fitted curve, apparently Colo829, read-out: EC50, cell viability curve (Figure 2C)): 130 nM
IC50, cell viability (MeWo (BRAF^wt) cells): no IC50 was observed
unconfirmed overall response rate [8]: 81%
reduction in the risk of death [9]: 63%
effect on ERK1/2 phosphorylation (BRAF^V600E cells): abolished ERK1/2 phosphorylation
effect on ERK1/2 and MEK phosphorylation (BRAF^wt cells): rapid phosphorylation of ERK1/2 and MEK
substrate for ABC-cassette efflux transporter P-gp (P-gp): substrate
substrate for ABC-cassette efflux transporter BCRP (BCRP): substrate
